The kinase profiling compilation of Christmann-Franck et al. (2016)

Key:
Experiment in all cases: Caliper, Mobility shift assay off-chip
CDK2 (human) = CDK2 (human) (UniProt P24941)
PRKCH (human) = PRKCH (human) (UniProt P24723)
CAMK2B (human) = CAMK2B (human) (UniProt Q13554); conditions: compound 0.1 µM
PRKCB1 (human) = PRKCB1 (human) (UniProt P05771)
PRKACA (human) = PRKACA (human) (UniProt P17612)
TSSK1B (human) = TSSK1B (human) (UniProt Q9BXA7); conditions: compound 0.1 µM
DYRK1A (human) = DYRK1A (human) (UniProt Q13627)
PRKCA (human) = PRKCA (human) (UniProt P17252)
[1] = system: ABL1 (human), P00519 [T315I]; conditions: compound 0.1 µM
SGK1 (human) = SGK1 (human) (UniProt O00141)
FGFR2 (human) = FGFR2 (human) (UniProt P21802); conditions: compound 0.1 µM
ABL1 (human) = ABL1 (human) (UniProt P00519)
PIM1 (human) = PIM1 (human) (UniProt P11309)
MARK1 (human) = MARK1 (human) (UniProt Q9P0L2)
CAMK4 (human) = CAMK4 (human) (UniProt Q16566)
PDGFRA (human) = PDGFRA (human) (UniProt P16234); conditions: compound 0.1 µM
PRKCB2 (human) = PRKCB2 (human) (UniProt P05771)
MAPK1 (human) = MAPK1 (human) (UniProt P28482)
RPS6KA4 KD1 KD2 (human) = RPS6KA4 KD1 KD2 (human) (UniProt O75676)
[2] = system: FGFR2 (human), P21802 [N549H]; conditions: compound 0.1 µM
[3] = system: ABL1 (human), P00519 [Q252H]; conditions: compound 0.1 µM
INSR (human) = INSR (human) (UniProt P06213)
MAP4K4 (human) = MAP4K4 (human) (UniProt O95819)
ROCK2 (human) = ROCK2 (human) (UniProt O75116)
FER (human) = FER (human) (UniProt P16591); conditions: compound 0.1 µM
HCK (human) = HCK (human) (UniProt P08631); conditions: compound 0.1 µM
SGK3 (human) = SGK3 (human) (UniProt Q96BR1)
CHEK2 (human) = CHEK2 (human) (UniProt O96017)
FYN (human) = FYN (human) (UniProt P06241)
ABL2 (human) = ABL2 (human) (UniProt P42684); conditions: compound 0.1 µM
NEK2 (human) = NEK2 (human) (UniProt P51955)
RPS6KB1 (human) = RPS6KB1 (human) (UniProt P23443)
PRKD1 (human) = PRKD1 (human) (UniProt Q15139)
AURKA (human) = AURKA (human) (UniProt O14965)

Sequence of PRKCB1 (human) (P05771 whole entry, looked up): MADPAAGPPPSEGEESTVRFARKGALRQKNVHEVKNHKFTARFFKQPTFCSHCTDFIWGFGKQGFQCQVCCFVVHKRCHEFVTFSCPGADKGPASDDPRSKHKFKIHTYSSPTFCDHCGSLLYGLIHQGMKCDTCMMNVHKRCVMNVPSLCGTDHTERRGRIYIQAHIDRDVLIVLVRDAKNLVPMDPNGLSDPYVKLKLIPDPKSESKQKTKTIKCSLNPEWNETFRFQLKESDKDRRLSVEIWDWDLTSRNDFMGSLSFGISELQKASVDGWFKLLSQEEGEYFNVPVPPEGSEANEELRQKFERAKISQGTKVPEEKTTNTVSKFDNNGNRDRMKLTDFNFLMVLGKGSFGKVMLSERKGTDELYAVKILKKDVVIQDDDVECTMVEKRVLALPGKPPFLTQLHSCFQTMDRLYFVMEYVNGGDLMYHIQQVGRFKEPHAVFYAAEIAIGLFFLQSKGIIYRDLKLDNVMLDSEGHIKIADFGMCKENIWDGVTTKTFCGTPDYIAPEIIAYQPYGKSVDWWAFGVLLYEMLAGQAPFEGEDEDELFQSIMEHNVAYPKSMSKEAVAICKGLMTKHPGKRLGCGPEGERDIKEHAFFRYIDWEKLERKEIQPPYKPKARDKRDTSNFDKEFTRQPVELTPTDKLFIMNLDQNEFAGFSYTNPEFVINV
Sequence of PRKCB2 (human) (P05771 whole entry, looked up): as above
Sequence of INSR (human) (P06213 whole entry, looked up): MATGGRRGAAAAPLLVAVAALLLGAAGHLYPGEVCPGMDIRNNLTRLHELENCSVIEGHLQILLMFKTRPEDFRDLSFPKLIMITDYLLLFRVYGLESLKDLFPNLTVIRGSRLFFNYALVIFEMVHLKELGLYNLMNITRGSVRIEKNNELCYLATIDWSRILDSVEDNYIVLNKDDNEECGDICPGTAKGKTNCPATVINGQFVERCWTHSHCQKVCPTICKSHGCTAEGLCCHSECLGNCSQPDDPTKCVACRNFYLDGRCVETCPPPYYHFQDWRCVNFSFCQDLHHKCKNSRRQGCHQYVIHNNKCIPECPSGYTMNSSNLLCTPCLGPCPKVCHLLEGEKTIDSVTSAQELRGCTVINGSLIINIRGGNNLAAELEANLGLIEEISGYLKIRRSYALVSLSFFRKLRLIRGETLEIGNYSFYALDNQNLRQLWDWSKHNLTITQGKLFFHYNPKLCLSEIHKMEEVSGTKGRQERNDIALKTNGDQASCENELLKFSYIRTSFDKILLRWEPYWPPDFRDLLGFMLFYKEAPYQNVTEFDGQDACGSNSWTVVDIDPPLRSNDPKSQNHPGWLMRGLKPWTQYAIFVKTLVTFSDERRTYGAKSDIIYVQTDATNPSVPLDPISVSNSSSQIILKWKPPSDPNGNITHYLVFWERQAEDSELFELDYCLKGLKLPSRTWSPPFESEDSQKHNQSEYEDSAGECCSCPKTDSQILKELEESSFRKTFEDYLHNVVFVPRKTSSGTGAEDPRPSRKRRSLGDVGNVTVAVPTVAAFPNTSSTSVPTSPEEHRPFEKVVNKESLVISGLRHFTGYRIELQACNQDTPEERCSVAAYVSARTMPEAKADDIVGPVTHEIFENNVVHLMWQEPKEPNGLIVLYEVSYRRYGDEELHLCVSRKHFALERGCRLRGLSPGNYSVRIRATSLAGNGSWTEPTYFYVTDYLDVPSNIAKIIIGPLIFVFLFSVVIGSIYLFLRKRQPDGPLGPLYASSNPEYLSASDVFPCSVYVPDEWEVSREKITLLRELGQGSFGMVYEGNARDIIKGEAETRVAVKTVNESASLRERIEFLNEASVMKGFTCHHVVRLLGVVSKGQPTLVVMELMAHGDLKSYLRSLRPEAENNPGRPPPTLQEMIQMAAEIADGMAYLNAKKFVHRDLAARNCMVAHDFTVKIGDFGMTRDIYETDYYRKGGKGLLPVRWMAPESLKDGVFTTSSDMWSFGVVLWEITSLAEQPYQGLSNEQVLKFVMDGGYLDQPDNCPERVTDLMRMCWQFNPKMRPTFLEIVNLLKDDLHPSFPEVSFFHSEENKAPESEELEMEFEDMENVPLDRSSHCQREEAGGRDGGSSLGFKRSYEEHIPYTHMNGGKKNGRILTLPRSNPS
Sequence of RPS6KB1 (human) (P23443 whole entry, looked up): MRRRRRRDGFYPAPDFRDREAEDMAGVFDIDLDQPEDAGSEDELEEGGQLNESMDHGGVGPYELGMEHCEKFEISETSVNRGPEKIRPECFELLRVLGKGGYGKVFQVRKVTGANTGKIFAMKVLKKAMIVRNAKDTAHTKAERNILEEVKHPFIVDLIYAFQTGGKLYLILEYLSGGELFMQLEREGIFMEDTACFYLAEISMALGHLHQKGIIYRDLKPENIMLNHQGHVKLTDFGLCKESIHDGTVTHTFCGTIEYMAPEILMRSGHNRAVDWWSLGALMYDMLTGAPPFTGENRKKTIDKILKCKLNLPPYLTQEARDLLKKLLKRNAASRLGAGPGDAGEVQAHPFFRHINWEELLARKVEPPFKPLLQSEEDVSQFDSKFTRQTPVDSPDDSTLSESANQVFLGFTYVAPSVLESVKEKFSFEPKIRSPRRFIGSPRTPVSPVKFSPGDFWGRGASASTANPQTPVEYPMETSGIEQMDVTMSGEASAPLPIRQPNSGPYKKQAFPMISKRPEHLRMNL
Sequence of MARK1 (human) (Q9P0L2 whole entry, looked up): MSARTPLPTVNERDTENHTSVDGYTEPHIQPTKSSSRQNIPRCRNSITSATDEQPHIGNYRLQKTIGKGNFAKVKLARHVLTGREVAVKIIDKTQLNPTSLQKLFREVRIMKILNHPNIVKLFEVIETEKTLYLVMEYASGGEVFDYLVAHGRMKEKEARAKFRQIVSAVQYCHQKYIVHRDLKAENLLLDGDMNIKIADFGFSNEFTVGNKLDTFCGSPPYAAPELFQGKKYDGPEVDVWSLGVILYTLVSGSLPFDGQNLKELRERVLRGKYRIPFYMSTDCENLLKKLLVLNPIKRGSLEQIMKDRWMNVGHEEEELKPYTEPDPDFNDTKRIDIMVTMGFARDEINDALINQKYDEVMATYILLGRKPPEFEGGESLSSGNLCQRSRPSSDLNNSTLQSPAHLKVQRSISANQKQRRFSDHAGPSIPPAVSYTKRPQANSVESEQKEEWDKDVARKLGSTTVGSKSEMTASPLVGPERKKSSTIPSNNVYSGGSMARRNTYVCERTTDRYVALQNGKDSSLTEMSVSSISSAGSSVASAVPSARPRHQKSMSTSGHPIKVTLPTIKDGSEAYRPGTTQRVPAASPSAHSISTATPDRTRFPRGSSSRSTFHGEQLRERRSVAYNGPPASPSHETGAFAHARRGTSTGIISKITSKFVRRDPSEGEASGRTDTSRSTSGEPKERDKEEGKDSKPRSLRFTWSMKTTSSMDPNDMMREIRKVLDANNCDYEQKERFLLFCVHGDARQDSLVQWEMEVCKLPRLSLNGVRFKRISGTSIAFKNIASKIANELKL
Sequence of PRKD1 (human) (Q15139 whole entry, looked up): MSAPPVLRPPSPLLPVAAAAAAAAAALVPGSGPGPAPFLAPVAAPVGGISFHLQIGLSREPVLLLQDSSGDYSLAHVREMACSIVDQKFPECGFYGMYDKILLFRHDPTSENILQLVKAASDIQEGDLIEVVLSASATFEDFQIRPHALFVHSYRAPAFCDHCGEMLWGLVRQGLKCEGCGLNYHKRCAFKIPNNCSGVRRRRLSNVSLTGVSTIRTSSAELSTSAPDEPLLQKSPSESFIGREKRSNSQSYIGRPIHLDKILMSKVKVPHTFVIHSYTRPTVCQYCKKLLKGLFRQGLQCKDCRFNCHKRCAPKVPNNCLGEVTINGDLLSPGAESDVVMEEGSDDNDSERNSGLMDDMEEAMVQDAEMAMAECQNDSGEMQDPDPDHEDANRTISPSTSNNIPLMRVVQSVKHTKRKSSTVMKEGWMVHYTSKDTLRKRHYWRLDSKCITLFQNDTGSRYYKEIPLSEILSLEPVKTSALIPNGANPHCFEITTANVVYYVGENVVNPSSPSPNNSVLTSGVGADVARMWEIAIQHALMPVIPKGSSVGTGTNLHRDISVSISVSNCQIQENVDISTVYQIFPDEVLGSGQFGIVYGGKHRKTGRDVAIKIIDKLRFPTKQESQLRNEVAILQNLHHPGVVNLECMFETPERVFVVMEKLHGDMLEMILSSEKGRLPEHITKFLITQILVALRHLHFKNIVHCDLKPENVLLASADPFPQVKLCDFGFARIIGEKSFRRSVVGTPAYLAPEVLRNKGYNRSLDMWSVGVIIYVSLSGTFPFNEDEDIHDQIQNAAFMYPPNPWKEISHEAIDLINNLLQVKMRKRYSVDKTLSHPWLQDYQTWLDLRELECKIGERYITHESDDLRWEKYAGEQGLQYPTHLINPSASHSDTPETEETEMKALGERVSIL

Cn1cc(-c2cnc3ccc4ccc(CS(=O)(=O)NCC5CCCCN5)cc4c(=O)c3c2)cn1 (stereo not drawn)
inhibition (CDK2 (human); compound 0.1 µM): 1.9% | inhibition (CDK2 (human); compound 1.0 µM): 1.4% | inhibition (PRKCH (human); compound 0.1 µM): 3.1% | inhibition (PRKCH (human); compound 1.0 µM): 1.4% | inhibition (CAMK2B (human)): 2.1% | inhibition (PRKCB1 (human); compound 0.1 µM): -20.8% | inhibition (PRKCB1 (human); compound 1.0 µM): -18.2% | inhibition (PRKACA (human); compound 0.1 µM): -1.4% | inhibition (PRKACA (human); compound 1.0 µM): 0.3% | inhibition (TSSK1B (human)): -2.7% | inhibition (DYRK1A (human); compound 0.1 µM): 2.3% | inhibition (DYRK1A (human); compound 1.0 µM): 2.1% | inhibition (PRKCA (human); compound 0.1 µM): -28% | inhibition (PRKCA (human); compound 1.0 µM): -0.1% | inhibition [1]: 3.3% | inhibition (SGK1 (human); compound 0.1 µM): 7.2% | inhibition (SGK1 (human); compound 1.0 µM): 9.6% | inhibition (FGFR2 (human)): 3% | inhibition (ABL1 (human); compound 0.1 µM): 23.1% | inhibition (ABL1 (human); compound 1.0 µM): 61.5% | inhibition (PIM1 (human); compound 0.1 µM): -4.7% | inhibition (PIM1 (human); compound 1.0 µM): -8.3% | inhibition (MARK1 (human); compound 0.1 µM): -3.9% | inhibition (MARK1 (human); compound 1.0 µM): 33.5% | inhibition (CAMK4 (human); compound 0.1 µM): -1.9% | inhibition (CAMK4 (human); compound 1.0 µM): -4.2% | inhibition (PDGFRA (human)): 17.5% | inhibition (PRKCB2 (human); compound 0.1 µM): -4.3% | inhibition (PRKCB2 (human); compound 1.0 µM): -2.5% | inhibition (MAPK1 (human); compound 0.1 µM): 1.1% | inhibition (MAPK1 (human); compound 1.0 µM): -4.4% | inhibition (RPS6KA4 KD1 KD2 (human); compound 0.1 µM): 0.2% | inhibition (RPS6KA4 KD1 KD2 (human); compound 1.0 µM): -17.3% | inhibition [2]: -2.9% | inhibition [3]: 1.4% | inhibition (INSR (human); compound 0.1 µM): -128% | inhibition (INSR (human); compound 1.0 µM): -2% | inhibition (MAP4K4 (human); compound 0.1 µM): 4.1% | inhibition (MAP4K4 (human); compound 1.0 µM): 15.7% | inhibition (ROCK2 (human); compound 0.1 µM): 3.6% | inhibition (ROCK2 (human); compound 1.0 µM): -1.6% | inhibition (FER (human)): 1.2% | inhibition (HCK (human)): -2.1% | inhibition (SGK3 (human); compound 0.1 µM): 0.3% | inhibition (SGK3 (human); compound 1.0 µM): -0.7% | inhibition (CHEK2 (human); compound 0.1 µM): 4.63% | inhibition (CHEK2 (human); compound 1.0 µM): -0.5% | inhibition (FYN (human); compound 0.1 µM): 4.37% | inhibition (FYN (human); compound 1.0 µM): 15.1% | inhibition (ABL2 (human)): 3.3% | inhibition (NEK2 (human); compound 0.1 µM): 2.7% | inhibition (NEK2 (human); compound 1.0 µM): -2.2% | inhibition (RPS6KB1 (human); compound 0.1 µM): -2.7% | inhibition (RPS6KB1 (human); compound 1.0 µM): 0% | inhibition (PRKD1 (human); compound 0.1 µM): -8.3% | inhibition (PRKD1 (human); compound 1.0 µM): -1.9% | inhibition (AURKA (human); compound 0.1 µM): 14.5% | inhibition (AURKA (human); compound 1.0 µM): 26.8%
